From US8841312B2, “Fused pyridine, pyrimidine and triazine compounds as cell cycle inhibitors” (Amgen Inc., priority 2007, dated 2014)

Experiments:
Cdk4/CyclinD1 = Cdk4/CyclinD1 (Homo sapiens (Human), UniProt P11802); assay: Cdk4 kinase inhibition assay with recombinant Cdk4/CyclinD1, Rb substrate, [33P]-ATP filter plate; assay type: biochemical; settings: 25 μM ATP, read-out: Cdk 4 IC50
Method in brief: (§1)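 Recombinant Cdk4/CyclinD1 or Cdk6/CyclinD3 phosphorylated Rb protein with [33P]-ATP for 1 h at room temperature. Protein was TCA-precipitated on filter plates and bound radioactivity counted. IC50 by nonlinear regression.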

Cdk6/CyclinD3 = Cdk6/CyclinD3 (Homo sapiens (Human), UniProt Q00534); assay: Cdk6 kinase inhibition assay with recombinant Cdk6/CyclinD3, Rb substrate, [33P]-ATP filter plate; assay type: biochemical; settings: 25 μM ATP, read-out: Cdk 6 IC50
Cdk6/CyclinD3, sequence (Q00534 whole entry): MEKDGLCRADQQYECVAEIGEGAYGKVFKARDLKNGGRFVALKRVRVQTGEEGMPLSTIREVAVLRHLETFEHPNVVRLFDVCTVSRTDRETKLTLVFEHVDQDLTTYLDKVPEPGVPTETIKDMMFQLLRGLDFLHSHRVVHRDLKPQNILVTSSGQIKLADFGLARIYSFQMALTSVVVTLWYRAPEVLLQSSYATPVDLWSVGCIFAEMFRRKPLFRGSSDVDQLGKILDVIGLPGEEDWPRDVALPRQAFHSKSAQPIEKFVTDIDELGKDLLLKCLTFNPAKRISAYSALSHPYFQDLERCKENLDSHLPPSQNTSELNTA
Cdk6/CyclinD3, sequence (P30281 whole entry partner): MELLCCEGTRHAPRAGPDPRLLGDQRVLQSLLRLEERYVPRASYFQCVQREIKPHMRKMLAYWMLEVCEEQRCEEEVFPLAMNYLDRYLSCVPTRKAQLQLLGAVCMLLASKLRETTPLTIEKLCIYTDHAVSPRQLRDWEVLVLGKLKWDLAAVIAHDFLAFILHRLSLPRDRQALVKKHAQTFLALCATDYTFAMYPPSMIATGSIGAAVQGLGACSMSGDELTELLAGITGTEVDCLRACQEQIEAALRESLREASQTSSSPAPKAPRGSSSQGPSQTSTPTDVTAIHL
Method in brief: as §1

Cdk4/CyclinD1, sequence (P11802 whole entry): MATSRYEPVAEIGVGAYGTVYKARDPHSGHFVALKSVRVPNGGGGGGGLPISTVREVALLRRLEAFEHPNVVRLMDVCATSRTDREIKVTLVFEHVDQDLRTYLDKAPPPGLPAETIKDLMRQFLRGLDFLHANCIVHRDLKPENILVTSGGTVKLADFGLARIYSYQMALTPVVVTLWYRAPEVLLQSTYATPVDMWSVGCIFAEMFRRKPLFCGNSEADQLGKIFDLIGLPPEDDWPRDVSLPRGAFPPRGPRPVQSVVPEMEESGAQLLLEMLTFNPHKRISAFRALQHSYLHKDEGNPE
Cdk4/CyclinD1, sequence (P24385 whole entry partner): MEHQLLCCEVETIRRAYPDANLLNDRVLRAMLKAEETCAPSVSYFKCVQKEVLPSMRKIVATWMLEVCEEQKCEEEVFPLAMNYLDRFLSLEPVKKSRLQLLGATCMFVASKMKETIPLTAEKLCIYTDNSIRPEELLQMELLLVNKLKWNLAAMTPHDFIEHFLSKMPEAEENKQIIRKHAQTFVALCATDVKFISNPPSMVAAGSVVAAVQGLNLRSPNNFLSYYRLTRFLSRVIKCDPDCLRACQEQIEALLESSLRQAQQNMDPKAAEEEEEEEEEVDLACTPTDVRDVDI

CN(C)C1CCN(c2ccc(Nc3ncc4c5ccncc5n(CCCO)c4n3)nc2)CC1 [Example 350]
IC50 (Cdk4/CyclinD1): 0.074 µM
IC50 (Cdk6/CyclinD3): 0.102 µM

OCCCn1c2cnccc2c2cnc(Nc3ccc(N4CC[C@@H](O)C4)nn3)nc21 [Example 353]
IC50 (Cdk4/CyclinD1): 0.09 µM
IC50 (Cdk6/CyclinD3): 0.103 µM

CN(C)C1CCN(c2ccc(Nc3ncc4c5ccccc5n(C5CCCC5)c4n3)nc2)CC1 [Example 309]
IC50 (Cdk4/CyclinD1): 0.011 µM
IC50 (Cdk6/CyclinD3): 0.012 µM

OCC1CCN(c2ccc(Nc3ncc4c5ccncc5n(C5CCCC5)c4n3)nn2)CC1 [Example 103]
IC50 (Cdk4/CyclinD1): 0.0056 µM
IC50 (Cdk6/CyclinD3): 0.0026 µM

CC1(C)CN(c2ccc(Nc3ncc4c5ccncc5n(C5CCC5)c4n3)nn2)CCN1 [Example 348]
IC50 (Cdk4/CyclinD1): 0.017 µM
IC50 (Cdk6/CyclinD3): 0.012 µM

c1ccc2c(c1)c1cnc(Nc3ccc(N4CCNCC4)cc3)nc1n2C1CCCC1 [Example 47, (9-Cyclopentyl-9H-pyrimido[4,5-b]indol-2-yl)-(4-piperazin-1-yl-phenyl)-amine]
IC50 (Cdk4/CyclinD1): 0.002 µM
IC50 (Cdk6/CyclinD3): 0.0037 µM

O=S(=O)(c1ccc(Nc2ncc3c4ccnc(F)c4n(C4CCCC4)c3n2)nc1)N1CCNCC1 [Example 228, 9-cyclopentyl-8-fluoro-N-(5-(1-piperazinylsulfonyl)-2-pyridinyl)-9H-pyrido[4′,3′:4,5]pyrrolo[2,3-d]pyrimidin-2-amine]
IC50 (Cdk4/CyclinD1): 0.015 µM
IC50 (Cdk6/CyclinD3): 0.0039 µM

OC1CCN(c2ccc(Nc3ncc4c5ccncc5n(C5CCCC5)c4n3)nn2)CC1 [Example 102]
IC50 (Cdk4/CyclinD1): 0.0031 µM
IC50 (Cdk6/CyclinD3): 0.0111 µM

c1cc2c3cnc(Nc4ccc(N5CCC(N6CCCC6)CC5)nn4)nc3n(C3CCCC3)c2cn1 [Example 437]
IC50 (Cdk4/CyclinD1): 0.023 µM
IC50 (Cdk6/CyclinD3): 0.03 µM

O=C(O)CNC1CCN(c2ccc(Nc3ncc4c5ccncc5n(C5CCCC5)c4n3)nn2)CC1 [Example 478]
IC50 (Cdk4/CyclinD1): 0.002 µM
IC50 (Cdk6/CyclinD3): 0.0057 µM

c1cc2c3cnc(Nc4ccc(NCC5CNC5)nn4)nc3n(C3CCCC3)c2cn1 [Example 97]
IC50 (Cdk4/CyclinD1): 0.43 µM
IC50 (Cdk6/CyclinD3): 0.396 µM

COc1ccc(-c2ccc(Nc3ncc4c5ccncc5n(C5CCCC5)c4n3)nn2)cn1 [Example 261, 9-Cyclopentyl-N-(6-(6-methoxy-3-pyridinyl)-3-pyridazinyl)-9H-pyrido[4′,3′:4,5]pyrrolo[2,3-d]pyrimidin-2-amine]
IC50 (Cdk4/CyclinD1): 0.233 µM
IC50 (Cdk6/CyclinD3): 0.36 µM

OC1CCN(C2CCN(c3ccc(Nc4ncc5c6ccncc6n(C6CCCC6)c5n4)nc3)CC2)CC1 [Example 463]
IC50 (Cdk4/CyclinD1): 0.015 µM
IC50 (Cdk6/CyclinD3): 0.018 µM

c1cc2c3cnc(Nc4cnc(N5CCNCC5)nc4)nc3n(C3CCCC3)c2cn1 [Example 8, 9-cyclopentyl-N-(2-(1-piperazinyl)-5-pyrimidinyl)-9H-pyrido[4′,3′:4,5]pyrrolo[2,3-d]pyrimidin-2-amine]
IC50 (Cdk4/CyclinD1): 0.00013 µM
IC50 (Cdk6/CyclinD3): 0.0011 µM

c1cc2c3cnc(Nc4ccc(N5CCNCC5)nn4)nc3n(C3CCC3)c2cn1 [Example 346]
IC50 (Cdk4/CyclinD1): 0.054 µM
IC50 (Cdk6/CyclinD3): 0.016 µM

O=C(O)CN1CCN(Cc2ccc(Nc3ncc4c5ccncc5n(C5CCCC5)c4n3)nc2)CC1 [Example 220, (4-((6-((9-cyclopentyl-9H-pyrido[4′,3′:4,5]pyrrolo[2,3-d]pyrimidin-2-yl)amino)-3-pyridinyl)methyl)-1-piperazinyl)acetic acid]
IC50 (Cdk4/CyclinD1): 0.001 µM
IC50 (Cdk6/CyclinD3): 0.0033 µM

CN(C)C1CCN(c2ccc(Nc3ncc4c5ccncc5n(C5CCCC5)c4n3)nn2)CC1 [Example 13]
IC50 (Cdk4/CyclinD1): 0.001 µM
IC50 (Cdk6/CyclinD3): 0.0026 µM

c1cnc2c(c1)c1cnc(Nc3ccc(N4CCNCC4)cc3)nc1n2C1CCCC1 [Example 36, (9-Cyclopentyl-9H-pyrido[3′,2′:4,5]pyrrolo[2,3-d]pyrimidin-2-yl)-(4-piperazin-1-yl-phenyl)-amine]
IC50 (Cdk4/CyclinD1): 0.00083 µM
IC50 (Cdk6/CyclinD3): 0.0044 µM

c1cc(Nc2ncc3c4sncc4n(C4CCCC4)c3n2)ncc1N1CCNCC1 [Example 168, 4-Cyclopentyl-N-(5-(1-piperazinyl)-2-pyridinyl)-4H-isothiazolo[5′,4′:4,5]pyrrolo[2,3-d]pyrimidin-6-amine]
IC50 (Cdk4/CyclinD1): 10 µM
IC50 (Cdk6/CyclinD3): 10 µM

O[C@H]1CCN(c2ccc(Nc3ncc4c5ccnc(F)c5n(C5CCCC5)c4n3)nn2)C1 [Example 311]
IC50 (Cdk4/CyclinD1): 0.0086 µM
IC50 (Cdk6/CyclinD3): 0.024 µM

O=S1(=O)CCN(c2ccc(Nc3ncc4c5ccncc5n(C5CCCC5)c4n3)nn2)CC1 [Example 94]
IC50 (Cdk4/CyclinD1): 0.0049 µM
IC50 (Cdk6/CyclinD3): 0.0092 µM

O=S(=O)(c1ccc(Nc2ncc3c4ccncc4n(C4CCCC4)c3n2)nc1)N1CCNCC1 [Example 227, 9-Cyclopentyl-N-(5-(1-piperazinylsulfonyl)-2-pyridinyl)-9H-pyrido[4′,3′:4,5]pyrrolo[2,3-d]pyrimidin-2-amine]
IC50 (Cdk4/CyclinD1): 0.003 µM
IC50 (Cdk6/CyclinD3): 0.0031 µM

CC(C)(C)n1c2cnccc2c2cnc(Nc3ccc(N4CCNCC4)cn3)nc21 [Example 27, (9-tert-Butyl-9H-pyrido[4′,3′:4,5]pyrrolo[2,3-d]pyrimidin-2-yl)-(5-piperazin-1-yl-pyridin-2-yl)-amine]
IC50 (Cdk4/CyclinD1): 0.0055 µM
IC50 (Cdk6/CyclinD3): 0.007 µM

CN(C)C1CCN(c2ccc(Nc3ncc4c5ccncc5n([C@@H]5CCNC5)c4n3)nc2)CC1 [Example 349]
IC50 (Cdk4/CyclinD1): 0.144 µM
IC50 (Cdk6/CyclinD3): 0.34 µM

CN(C)C1CCN(c2ccc(Nc3ncc4c5ccncc5n([C@H]5CCC[C@H]5O)c4n3)nc2)CC1 [Example 354]
IC50 (Cdk4/CyclinD1): 0.58 µM
IC50 (Cdk6/CyclinD3): 0.83 µM

c1cc2c3cnc(Nc4ccc(N5CCNCC5)cn4)nc3n(C3CCCC3)c2nn1 [Example 200, 9-Cyclopentyl-N-(5-(1-piperazinyl)-2-pyridinyl)-9H-pyrimido[5′,4′:4,5]pyrrolo[2,3-c]pyridazin-7-amine]
IC50 (Cdk4/CyclinD1): 0.036 µM
IC50 (Cdk6/CyclinD3): 0.013 µM

CCNC1CCN(c2ccc(Nc3ncc4c5ccncc5n(C5CCCC5)c4n3)nc2)CC1 [Example 464]
IC50 (Cdk4/CyclinD1): 0.002 µM
IC50 (Cdk6/CyclinD3): 0.0031 µM

CNC1CCN(c2ccc(Nc3ncc4c5ccncc5n(C5CCC5)c4n3)nn2)CC1 [Example 434]
IC50 (Cdk4/CyclinD1): 0.013 µM
IC50 (Cdk6/CyclinD3): 0.019 µM

CN(C)CCCN(C)c1ccc(Nc2ncc3c4ccncc4n(C4CCCC4)c3n2)nn1 [Example 290]
IC50 (Cdk4/CyclinD1): 0.035 µM
IC50 (Cdk6/CyclinD3): 0.085 µM

CCC(C)(C)n1c2cnccc2c2cnc(Nc3ccc(N4CCC(N(C)C)CC4)nn3)nc21 [Example 156, N-(6-(4-(dimethylamino)-1-piperidinyl)-3-pyridazinyl)-9-(1,1-dimethylpropyl)-9H-pyrido[4′,3′:4,5]pyrrolo[2,3-d]pyrimidin-2-amine]
IC50 (Cdk4/CyclinD1): 0.007 µM
IC50 (Cdk6/CyclinD3): 0.014 µM

O[C@@H]1CCN(c2ccc(Nc3ncc4c5ccncc5n(C5CCC5)c4n3)nc2)C1 [Example 435]
IC50 (Cdk4/CyclinD1): 0.042 µM
IC50 (Cdk6/CyclinD3): 0.092 µM

O[C@H]1CC[C@H](n2c3cnccc3c3cnc(Nc4ccc(N5CCNCC5)cn4)nc32)CC1 [Example 31, 4-[2-(5-piperazin-1-yl-pyridin-2-ylamino)-pyrido[4′,3′:4,5]pyrrolo[2,3-d]pyrimidin-9-yl]-trans-cyclohexanol]
IC50 (Cdk4/CyclinD1): 0.0025 µM
IC50 (Cdk6/CyclinD3): 0.0059 µM

O=C(c1cnc(Nc2ncc3c4ccncc4n(C4CCCC4)c3n2)s1)N1CCNCC1 [Example 50, 9-cyclopentyl-N-(5-(1-piperazinylcarbonyl)-1,3-thiazol-2-yl)-9H-pyrido[4′,3′:4,5]pyrrolo[2,3-d]pyrimidin-2-amine]
IC50 (Cdk4/CyclinD1): 0.066 µM
IC50 (Cdk6/CyclinD3): 0.112 µM

OC1CN(C2CCN(c3ccc(Nc4ncc5c6ccncc6n(C6CCCC6)c5n4)nc3)CC2)C1 [Example 474]
IC50 (Cdk4/CyclinD1): 0.005 µM
IC50 (Cdk6/CyclinD3): 0.012 µM

COCCn1c2cnccc2c2cnc(Nc3ccc(N4CCNCC4)cn3)nc21 [Example 312]
IC50 (Cdk4/CyclinD1): 0.37 µM
IC50 (Cdk6/CyclinD3): 0.79 µM

COc1cc2c3cnc(Nc4ccc(N5CCNCC5)cn4)nc3n(C3CCCC3)c2cn1 [Example 42, (9-Cyclopentyl-6-methoxy-9H-pyrido[4′,3′:4,5]pyrrolo[2,3-d]pyrimidin-2-yl)-(5-piperazin-1-yl-pyridin-2-yl)-amine]
IC50 (Cdk4/CyclinD1): 0.237 µM
IC50 (Cdk6/CyclinD3): 0.5 µM

Fc1ccc(-n2c3cnccc3c3cnc(Nc4ccc(N5CCNCC5)cn4)nc32)cc1 [Example 15]
IC50 (Cdk4/CyclinD1): 0.0075 µM
IC50 (Cdk6/CyclinD3): 0.013 µM

CN(C)[C@H]1CCN(c2ccc(Nc3ncc4c5ccncc5n(C5CCCC5)c4n3)nc2)C1 [Example 288]
IC50 (Cdk4/CyclinD1): 0.014 µM
IC50 (Cdk6/CyclinD3): 0.04 µM

c1cc(-c2ccc(Nc3ncc4c5ccncc5n(C5CCCC5)c4n3)nc2)ccn1 [Example 260, N-3,4′-bipyridin-6-yl-9-cyclopentyl-9H-pyrido[4′,3′:4,5]pyrrolo[2,3-d]pyrimidin-2-amine]
IC50 (Cdk4/CyclinD1): 0.045 µM
IC50 (Cdk6/CyclinD3): 0.06 µM

c1cc2c3cnc(Nc4ccc(N5CCC(NC6CCC6)CC5)cn4)nc3n(C3CCCC3)c2cn1 [Example 468]
IC50 (Cdk4/CyclinD1): 0.0042 µM
IC50 (Cdk6/CyclinD3): 0.019 µM

c1cc2c3cnc(Nc4ccc(N5CCNCC5)cn4)nc3n(C3CCOCC3)c2cn1 [Example 20, (5-piperazin-1-yl-pyridine-2-yl)-[9-(tetrahydro-pyran-4-yl)-9H-pyrido-[4′,3′,4,5]pyrrolo[2,3-d]pyrimidin-2-yl]-amine]
IC50 (Cdk4/CyclinD1): 0.0081 µM
IC50 (Cdk6/CyclinD3): 0.057 µM

CN(C)C1CCN(c2ccc(Nc3ncc4c5ccnc(Cl)c5n(C5CCCC5)c4n3)nc2)CC1 [Example 153, 8-Chloro-9-cyclopentyl-N-(5-(4-(dimethylamino)-1-piperidinyl)-2-pyridinyl)-9H-pyrido[4′,3′:4,5]pyrrolo[2,3-d]pyrimidin-2-amine]
IC50 (Cdk4/CyclinD1): 0.001 µM
IC50 (Cdk6/CyclinD3): 0.0028 µM

NC1CCN(c2ccc(Nc3ncc4c5ccncc5n(C5CCCC5)c4n3)nn2)CC1 [Example 114]
IC50 (Cdk4/CyclinD1): 0.0016 µM
IC50 (Cdk6/CyclinD3): 0.01 µM

CN(C)C1CCN(S(=O)(=O)c2ccc(Nc3ncc4c5ccncc5n(C5CCCC5)c4n3)nc2)CC1 [Example 229, 9-cyclopentyl-N-(5-((4-(dimethylamino)-1-piperidinyl)sulfonyl)-2-pyridinyl)-9H-pyrido[4′,3′:4,5]pyrrolo[2,3-d]pyrimidin-2-amine]
IC50 (Cdk4/CyclinD1): 0.0212 µM
IC50 (Cdk6/CyclinD3): 0.0205 µM

CC[C@@H](C)n1c2cnccc2c2cnc(Nc3ccc(N4CCNCC4)nn3)nc21 [Example 323]
IC50 (Cdk4/CyclinD1): 0.0096 µM
IC50 (Cdk6/CyclinD3): 0.023 µM

O[C@H]1CCCN(c2ccc(Nc3ncc4c5ccncc5n(C5CCCC5)c4n3)nn2)C1 [Example 105]
IC50 (Cdk4/CyclinD1): 0.0067 µM
IC50 (Cdk6/CyclinD3): 0.0071 µM
